Experimental data published in patent US9732094B2, “Arylquinazolines” (Merck Patent GmbH, priority 2013, dated 2017).

How the values were obtained:
DNA-PK = DNA-PK (Homo sapiens (Human), UniProt P78527); experiment: DNA-PK assay (biochemical), flashplate 33P-ATP kinase assay; details: biochemical DNA-PK assay
Summary of the method: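 Radiometric kinase reaction in streptavidin-coated flashplates, stopped with 200 mM EDTA, then 30 min room-temperature incubation and saline washes.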

Kv11.1 (hERG) [1] = molecular target: T1, Kv11.1 (hERG) (Homo sapiens (Human), UniProt Q12809); experiment: Kv11.1 ion channel binding assay (Predictor hERG fluorescence polarisation); details: cells marked *: measured using hERG binding assay instead of hERG patch clamp assay; read-out: Ki [Kv1.11 hERG]
T1 sequence (Q12809 whole entry): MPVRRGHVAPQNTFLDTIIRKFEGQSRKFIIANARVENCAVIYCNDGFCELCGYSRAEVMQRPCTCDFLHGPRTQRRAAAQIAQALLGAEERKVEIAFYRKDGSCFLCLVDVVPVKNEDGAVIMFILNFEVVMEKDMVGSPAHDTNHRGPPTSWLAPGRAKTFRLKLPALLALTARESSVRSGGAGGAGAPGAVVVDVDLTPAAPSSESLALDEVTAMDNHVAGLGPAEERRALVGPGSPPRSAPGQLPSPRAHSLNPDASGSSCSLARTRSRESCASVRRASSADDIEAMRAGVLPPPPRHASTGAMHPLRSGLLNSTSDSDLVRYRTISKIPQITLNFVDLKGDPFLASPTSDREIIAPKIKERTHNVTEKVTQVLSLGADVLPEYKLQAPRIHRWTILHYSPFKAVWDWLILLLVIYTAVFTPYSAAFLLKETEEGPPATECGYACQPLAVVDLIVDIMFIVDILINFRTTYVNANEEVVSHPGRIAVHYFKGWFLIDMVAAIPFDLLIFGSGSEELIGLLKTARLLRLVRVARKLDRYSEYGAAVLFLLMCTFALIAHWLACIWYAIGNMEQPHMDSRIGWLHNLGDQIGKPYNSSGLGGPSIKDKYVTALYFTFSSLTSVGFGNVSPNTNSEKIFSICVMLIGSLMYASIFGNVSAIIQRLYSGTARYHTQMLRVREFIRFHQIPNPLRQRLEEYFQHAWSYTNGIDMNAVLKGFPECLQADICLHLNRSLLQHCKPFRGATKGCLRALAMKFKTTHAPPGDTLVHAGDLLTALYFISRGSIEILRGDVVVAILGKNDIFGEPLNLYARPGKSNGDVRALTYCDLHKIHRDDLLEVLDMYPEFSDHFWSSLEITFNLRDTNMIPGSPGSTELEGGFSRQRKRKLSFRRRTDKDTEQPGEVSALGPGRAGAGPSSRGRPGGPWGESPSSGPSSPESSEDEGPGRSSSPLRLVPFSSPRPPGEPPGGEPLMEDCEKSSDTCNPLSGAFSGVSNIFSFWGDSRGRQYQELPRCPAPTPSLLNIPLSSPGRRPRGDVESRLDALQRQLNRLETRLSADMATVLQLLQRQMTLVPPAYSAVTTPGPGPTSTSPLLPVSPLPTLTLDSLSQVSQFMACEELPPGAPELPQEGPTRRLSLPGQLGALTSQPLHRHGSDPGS
Method: D) Kv11.1 Ion Channel Binding Assay
Kv11.1 (hERG=human ether a go-go related […]) is a cardiac K^+ channel which should if possible not interact with the test substances. This interaction is determined quantitatively with the aid of the Predictor™ hERG Fluorescence Polarizations (FP) Assays from Life Technologies. In the case of this assay principle, cardiomyocyte cell membranes having a certain proportion of Kv11.1 channels are isolated. A dye-labelled Kv11.1 binding partner gives a high fluorescence polarisation signal by interaction with the Kv11.1. In the case of displacement of the dye, a reduction in the fluorescence polarisation signal occurs.
The assay is carried out automatically as follows: 15 nl of the test substances (highest concentration: 10 mM, 10 concentrations: dilution factors 1:3.16, DMSO) are transferred into an empty microtitre plates having 384 wells by means of an acoustic pipetter. 3 μl of the isolated membranes are subsequently added. Membranes and test substances are incubated at 22° C. for 15 min (+/−5 min). In the next step, the dye-labelled binding partner is added, followed by incubation at 22° C. After incubation for two hours, the measurement of the fluorescence polarisation is carried out on an Envision multimode Reader. Measured raw data are standardised with the aid of Genedata Assay Analyzer. The 1050 and % effect values are calculated in Genedata Condoseo.

[2] = molecular target: DNA-PK phosphorylation at serine 2056 (Homo sapiens (Human), UniProt P78527); experiment: DNA-PK phosphorylation at serine 2056 (cellular), bleomycin-treated HCT116 cells, ELISA; assay type: cell-based; details: cellular DNA-PK phosphorylation at serine 2056, HCT116; read-out: IC50 pDNA-PK
Summary of the method: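 HCT116, MEM alpha + 10% FCS, 37 °C/10% CO2, seeded o/n. Cpd + 10 μM bleomycin, 6 h. ELISA, chemiluminescence; phospho/total DNA-PKcs ratio, DMSO = blank.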

Kv11.1 (hERG) [3] = molecular target: T1, Kv11.1 (hERG); experiment: Kv11.1 (hERG) ion channel activity (patch clamp assay), HEK293 cells transfected with hERG gene; details: hERG patch clamp assay (cells without asterisk)

`COc1nccnc1C(O)c1ccc(F)c(-c2ncnc3cc(N4CCOCC4)cc(F)c23)c1` (single isomer, unassigned) [Example 252, [4-Fluoro-3-(5-fluoro-7-morpholin-4-yl-quinazolin-4-yl)-phenyl]-(3-methoxy-pyrazin-2-yl)-methanol] was tested, and the IC50 (DNA-PK) was < 3 nM, the Ki (Kv11.1 (hERG) [1]) was > 25 µM and the IC50 [2] was < 500 nM.

With `[2H]C1([2H])OC([2H])([2H])C([2H])([2H])N(c2ccc3c(-c4cc(C(O)c5ccc(OC)nn5)c(Cl)cc4F)ncnc3c2)C1([2H])[2H]` (single isomer, unassigned) [Example 262, [2-Chloro-4-fluoro-5-[7-(2,2,3,3,5,5,6,6-octadeuteriomorpholin-4-yl)quinazolin-4-yl]phenyl]-(6-methoxypyridazin-3-yl)methanol] the Ki (Kv11.1 (hERG) [1]) was > 25 µM.

In the case of `COc1ccc(C(O)c2cc(-c3ncnc4cc(N5CCOCC5)cc(F)c34)c(F)cc2Cl)nn1` (single isomer, unassigned) [Example 263, [2-Chloro-4-fluoro-5-(5-fluoro-7-morpholin-4-yl-quinazolin-4-yl)-phenyl]-(6-methoxy-pyridazin-3-yl)-methanol], the IC50 (DNA-PK) is reported as 7 to 30 nM, the Ki (Kv11.1 (hERG) [1]) is reported as > 25 µM and the IC50 [2] is reported as 10000 to 30000 nM.

With `COC(c1ccc(F)c(-c2ncnc3cc(N4CCOCC4)ccc23)c1)c1nccnc1C` (stereo not drawn) [Example 352, 4-{2-Fluoro-5-[methoxy-(3-methyl-pyrazin-2-yl)methyl]-phenyl}-7-morpholin-4-ylquinazoline] the IC50 (DNA-PK) was > 30 nM and the Ki (Kv11.1 (hERG) [1]) was > 25 µM.

For `COc1nccnc1C(O)c1cc(-c2ncnc3cc(N4CCOCC4)ccc23)c(F)cc1F` (stereo not drawn) [Example 454, [2,4-Difluoro-5-(7-morpholin-4-yl-quinazolin-4-yl)-phenyl]-(3-methoxy-pyrazin-2-yl)-methanol], the Ki (Kv11.1 (hERG) [3]; read-out: Ki [Kv1.11 hERG]) was > 25 µM, the IC50 (DNA-PK) was < 3 nM and the IC50 [2] was < 500 nM.

`COc1nccnc1[C@H](O)c1cc(-c2ncnc3cc(N4CCOCC4)ccc23)c(F)cc1Cl` [Example 455, (R)-[2-Chloro-4-fluoro-5-(7-morpholin-4-yl-quinazolin-4-yl)-phenyl]-(3-methoxy-pyrazin-2-yl)-methanol] was tested, and the Ki (Kv11.1 (hERG) [3]; Ki [Kv1.11 hERG]) was 15 to 25 µM, the IC50 (DNA-PK) was < 3 nM and the IC50 [2] was < 500 nM.

In the case of `COc1nccnc1[C@@H](O)c1cc(-c2ncnc3cc(N4CCOCC4)ccc23)c(F)cc1Cl` [Example 456, (S)-(2-Chloro-4-fluoro-5-(7-morprholin-4-yl-quinazolin-4-yl)-pnenyl]-(3-methoxy-pyrazin-2-yl)-methanol], the Ki (Kv11.1 (hERG) [3]; Ki [Kv1.11 hERG]) is reported as 10 to 15 µM, the IC50 (DNA-PK) is reported as < 3 nM and the IC50 [2] is reported as < 500 nM.

In the case of `Cc1nccnc1C(O)c1cc(-c2ncnc3cc(N4CCOCC4)ccc23)c(F)cc1Cl` (stereo not drawn) [Example 457, [2-Chloro-4-fluoro-5-(7-morpholin-4-yl-quinazolin-4-yl)-phenyl]-(3-methyl-pyrazin-2-yl)-methanol], the Ki (Kv11.1 (hERG) [3]; read-out: Ki [Kv1.11 hERG]) is reported as > 25 µM, the IC50 (DNA-PK) is reported as 3 to 7 nM and the IC50 [2] is reported as < 500 nM.

`COc1ccc(C(O)c2cc(-c3ncnc4cc(N5CCOCC5)ccc34)ccc2Cl)nn1` (stereo not drawn) [Example 458, [2-Chloro-5-(7-morpholin-4-yl-quinazolin-4-yl)-phenyl]-(6-methoxy-pyridazin-3-yl)-methanol] was tested, and the Ki (Kv11.1 (hERG) [3]; Ki [Kv1.11 hERG]) was 10 to 15 µM, the IC50 (DNA-PK) was < 3 nM and the IC50 [2] was < 500 nM.

With `CCOc1cccnc1C(O)c1ccc(F)c(-c2ncnc3cc(N4CCOCC4)ccc23)c1` (stereo not drawn) [Example 463, (3-Ethoxy-pyridin-2-yl)-[4-fluoro-3-(7-morpholin-4-yl-quinazolin-4-yl)-phenyl]methanol] the Ki (Kv11.1 (hERG) [3]; Ki [Kv1.11 hERG]) was 15 to 25 µM, the IC50 (DNA-PK) was 3 to 7 nM and the IC50 [2] was < 500 nM.

Work on `OC(c1ccc(F)c(-c2ncnc3cc(N4CCOCC4)ccc23)c1)c1nccnc1OC(F)F` (stereo not drawn) [Example 464, (3-Difluoromethoxy-pyrazin-2-yl)-[4-fluoro-3-(7-morpholin-4-yl-quinazolin-4-yl)-phenyl]methanol] yielded a Ki (Kv11.1 (hERG) [3]; Ki [Kv1.11 hERG]) of 15 to 25 µM, an IC50 (DNA-PK) of 3 to 7 nM and an IC50 [2] of 500 to 5000 nM.

`OC(c1ccc(F)c(-c2ncnc3cc(N4CCOCC4)ccc23)c1)c1ncccc1Cl` (stereo not drawn) [Example 465, (3-Chloro-pyridin-2-yl)-[4-fluoro-3-(7-morpholin-4-yl-quinazolin-4-yl)-phenyl]methanol] was tested, and the Ki (Kv11.1 (hERG) [3]; Ki [Kv1.11 hERG]) was 15 to 25 µM, the IC50 (DNA-PK) was < 3 nM and the IC50 [2] was < 500 nM.

With `OC(c1ccc(F)c(-c2ncnc3cc(N4CCOCC4)ccc23)c1)c1ncccc1Cl` (stereo not drawn) [Example 466, (3-Chloro-pyridin-2-yl)-[4-fluoro-3-(7-morpholin-4-yl-quinazolin-4-yl)-phenyl]methanol] the Ki (Kv11.1 (hERG) [3]; read-out: Ki [Kv1.11 hERG]) was 15 to 25 µM, the IC50 (DNA-PK) was 7 to 30 nM and the IC50 [2] was 500 to 5000 nM.

`COc1nccnc1C(O)c1cc(-c2ncnc3cc(N4CCOCC4)ccc23)c(F)cc1F` (stereo not drawn) [Example 467, [2,4-Difluoro-5-(7-morpholin-4-yl-quinazolin-4-yl)-phenyl]-(3-methoxy-pyrazin-2-yl)-methanol] was tested, and the Ki (Kv11.1 (hERG) [3]; read-out: Ki [Kv1.11 hERG]) was > 25 µM, the IC50 (DNA-PK) was 3 to 7 nM and the IC50 [2] was < 500 nM.

For `COc1nccnc1C(O)c1cc(-c2ncnc3cc(N4CCOCC4)ccc23)c(F)cc1Cl` (stereo not drawn) [Example 468, [2-Chloro-4-fluoro-5-(7-morpholin-4-yl-quinazolin-4-yl)-phenyl]-(3-methoxy-pyrazin-2-yl)-methanol], the Ki (Kv11.1 (hERG) [3]; Ki [Kv1.11 hERG]) was 15 to 25 µM, the IC50 (DNA-PK) was < 3 nM and the IC50 [2] was < 500 nM.

In the case of `Cc1cccnc1C(O)c1ccc(F)c(-c2ncnc3cc(N4CCOCC4)ccc23)c1` (stereo not drawn) [Example 472, [4-Fluoro-3-(7-morpholin-4-yl-quinazolin-4-yl)-phenyl]-(3-methyl-pyridin-2-yl)methanol], the Ki (Kv11.1 (hERG) [3]; read-out: Ki [Kv1.11 hERG]) is reported as > 25 µM, the IC50 (DNA-PK) is reported as 3 to 7 nM and the IC50 [2] is reported as < 500 nM.

In the case of `COc1cnc(C(O)c2ccc(F)c(-c3ncnc4cc(N5CCOCC5)ccc34)c2)c(Br)c1` (stereo not drawn) [Example 473, (3-bromo-5-methoxy-pyridin-2-yl)-[4-fluoro-3-(7-morpholin-4-yl-quinazolin-4-yl)-phenyl]methanol], the Ki (Kv11.1 (hERG) [3]; Ki [Kv1.11 hERG]) is reported as 15 to 25 µM, the IC50 (DNA-PK) is reported as 3 to 7 nM and the IC50 [2] is reported as < 500 nM.

For `OC(c1cn2ccsc2n1)c1cc(-c2ncnc3cc(N4CCOCC4)ccc23)c(F)cc1F` (stereo not drawn) [Example 474, [2,4-Difluoro-5-(7-morpholin-4-yl-quinazolin-4-yl)-phenyl]imidazo-[2,1-b]thiazol-6-yl-methanol], the Ki (Kv11.1 (hERG) [3]; Ki [Kv1.11 hERG]) was 10 to 15 µM, the IC50 (DNA-PK) was > 30 nM and the IC50 [2] was 10000 to 30000 nM.

`OC(c1ccc(F)c(-c2ncnc3cc(N4CCOCC4)ccc23)c1)c1ncccc1OC(F)(F)F` (stereo not drawn) [Example 475, [4-Fluoro-3-(7-morpholin-4-yl-quinazolin-4-yl)-phenyl]-(3-trifluoro-methoxypyridin-2-yl)-methanol] was tested, and the Ki (Kv11.1 (hERG) [3]; Ki [Kv1.11 hERG]) was 15 to 25 µM, the IC50 (DNA-PK) was < 3 nM and the IC50 [2] was < 500 nM.

In the case of `OC(c1ccc(F)c(-c2ncnc3cc(N4CCOCC4)ccc23)c1)c1nccnc1C(F)(F)F` (stereo not drawn) [Example 476, [4-Fluoro-3-(7-morpholin-4-yl-quinazolin-4-yl)-phenyl]-(3-trifluoro-methylpyrazin-2-yl)-methanol], the Ki (Kv11.1 (hERG) [3]; read-out: Ki [Kv1.11 hERG]) is reported as > 25 µM, the IC50 (DNA-PK) is reported as 3 to 7 nM and the IC50 [2] is reported as < 500 nM.

`OC(c1ccc(F)c(-c2ncnc3cc(N4CCOCC4)ccc23)c1)c1ncccc1Br` (stereo not drawn) [Example 478, (3-bromo-pyridin-2-yl)-[4-fluoro-3-(7-morpholin-4-yl-quinazolin-4-yl)-phenyl] methanol] was tested, and the Ki (Kv11.1 (hERG) [3]; read-out: Ki [Kv1.11 hERG]) was < 10 µM, the IC50 (DNA-PK) was < 3 nM and the IC50 [2] was < 500 nM.

`OC(c1cccnn1)c1cc(-c2ncnc3cc(N4CCOCC4)ccc23)ccc1Cl` (stereo not drawn) [Example 479, (2-Chloro-5-(7-morpholin-4-yl-quinazolin-4-yl)-phenyl]pyridazin-3-yl-methanol] was tested, and the Ki (Kv11.1 (hERG) [3]; Ki [Kv1.11 hERG]) was 15 to 25 µM, the IC50 (DNA-PK) was 3 to 7 nM and the IC50 [2] was < 500 nM.
